Results from US7888357B2, “Anti-inflammatory and protein kinase inhibitor compositions and related methods for downregulation of detrimental cellular responses and inhibition of cell death” (Northwestern University, priority 2001, dated 2011).
“Also recorded” adds a separate entry of the source.

Experiments:
WT mice = assay: Endotoxin (LPS)-mediated acute lung injury; type: in vivo, mouse; conditions: 2.5 mg/kg IP 1 hour prior to LPS 10 mg/kg IP; 24 hours
Procedure: To confirm the specific role of EC MLCK in the reduced susceptibility of KO mice to endotoxin-mediated lung injury, a representative composition of this invention was used to determine whether pharmacologic inhibition of MLCK would also reduce LPS-induced lung injury. (See, examples 25-26, below.) WT mice were treated with 2.5 mg/kg of a representative MLCK inhibitor (e.g., cpd MW01-022AZ) 1 hour prior to administration of LPS.
Endotoxin-mediated lung injury. LPS (Sigma, St. Louis, Mo.) (10 mg/kg) was administered via intraperitoneal (ip) injection. Animals were allowed to recover for 24 hours prior to determination of lung injury. Control animals received an equivalent volume of sterile saline.
[drawing 161] are shown to be comparatively selective (using assay procedures and data analyses previously described) for inhibition of MLCK and related enzymes such as Rho kinase, and are bioavailable in various other animal models of disease. […] The stimulus in this example was IP injection of 10 mg/kg body weight of the bacterial endotoxin, lipopolysaccharide (LPS). The treatment with MW01-022AZ represents a clinically relevant dose of a kinase inhibitor therapeutic based on prior art with other kinases. Other compositions of this invention, having the structural relationships described and/or illustrated above, can also be employed.
Histologic analysis of lung injury after LPS exposure. […]

CaMKII = biological target: T1, CaMKII (Rattus norvegicus, UniProt P11275); assay: Reconstituted enzyme assay, CaMKII; type: biochemical; conditions: Table 6; read-out: Inhibition CAMKII
T1 construct: purchased New England Biolabs
Procedure: (§1) [table] […] The rationale for using BV-2 cells in high throughput screening was the paucity of well-characterized human microglial cell lines, and the relevant activation responses and signaling pathways reflect those seen in human and rodent primary microglial cultures. Compounds were tested for their effects on NO accumulation in conditioned media of LPS-stimulated BV-2 cells by measurement of nitrite production by the Griess assay as a read-out for iNOS activity, as described previously. Stock solutions of compounds were prepared in dimethylsulfoxide (DMSO) or in water. When stock solutions were prepared in DMSO, control wells contained the same final concentration of DMSO as the compound-containing wells. […] Solutions of compounds for cell treatments were diluted to a 10× final concentration by dilution of stock solutions in αMEM media. […] Reconstituted enzyme assays were done as described s. The sources of protein kinases were: bovine heart PKA from Promega, rat brain PKC from Calbiochem, rat CaMKII from New England Biolabs, chicken gizzard MLCK prepared as described, and a p38 MAP kinase kit containing recombinant Xenopus p38-MAPK and its human substrate from Upstate Biotechnology. The catalytic domains of these protein kinases retain a high level of amino acid sequence identity across mammalian species, consistent with the lack of documented major differences across species for the in vitro catalytic activity of a given kinase.

[1] = biological target: T2, myosin light chain kinase (MLCK) (Gallus gallus, UniProt P11799); assay: Reconstituted enzyme assay, MLCK; type: biochemical, chicken; conditions: Table 6; read-out: Inhibition MLCK
T2 construct: chicken gizzard MLCK prepared as described; from tissue; host or cells: chicken gizzard
Procedure: as §1

protein kinase C (PKC) = assay: Reconstituted enzyme assay, PKC; type: biochemical, rat; conditions: Table 6; read-out: Inhibition KC
Procedure: as §1

[2] = biological target: death associated protein kinase (DAPK) (Homo sapiens, UniProt P53355); assay: Enzyme assay, DAPK; type: biochemical
Procedure: Therefore, compound MW01-026Z was selected as a starting point for variations on component A (Table 6). […] However, none of the A variations appeared to improve the activity and selectivity profile of CompoundMW01-026Z. (For purposes of illustration, only, component G was maintained throughout as an acyl moiety, while component R2 was varied as shown. All such compositions are available using the synthetic techniques described herein. Enzyme assays were conducted per procedures described elsewhere herein.) A more comprehensive structure activity relationship is summarized in Table 7, below.
With reference to the compositions of Table 3 and the enzyme assay techniques described elsewhere herein, Table 7 provides structural activity relationships observed, in accordance with this invention.

Wistar rats at P7 = assay: Hypoxia-ischemia induced brain damage, hemispheric weight; type: in vivo
Description: Induction of hypoxia-ischemia in postnatal day seven (P7) rats. Hypoxic-ischemic injury in P7 rats was induced using the well-characterized method of unilateral carotid ligation followed by hypoxia. This age is approximately equivalent to the 34 week gestation human infant. Male and female Wistar rats at P7 were removed from the mother and anesthetized with halothane (3.5% for induction and 1.5% for maintenance) 50% oxygen-balance nitrogen delivered via facemask. The right common carotid artery was identified and gently separated from the vagus nerve. The vessel was ligated with double 6-0 silk sutures to ensure cessation of blood flow. […]
Animals were sacrificed by halothane overdose at 7 days after hypoxia. […] Differences in weight between the hypoxic-ischemic and control contralateral hemisphere were calculated for each animal using the formula: 100*(C−I)/C=% damage where I represents the weight of the ipsilateral and C the weight of the contralateral hemisphere.
Data Analysis. All data are expressed as mean±SEM. The degree of hypoxic-ischemic brain injury after treatment with drug or saline is expressed as the percentage of reduction in the tissue weight of the hemisphere ipsilateral to carotid ligation. This was calculated as a ratio of the right (ipsilateral, ischemic) to the left (contralateral, non-ischemic) hemispheric weights as described previously in the literature. […]

Chain of death associated protein kinase (DAPK) (P53355 whole entry, species assumed): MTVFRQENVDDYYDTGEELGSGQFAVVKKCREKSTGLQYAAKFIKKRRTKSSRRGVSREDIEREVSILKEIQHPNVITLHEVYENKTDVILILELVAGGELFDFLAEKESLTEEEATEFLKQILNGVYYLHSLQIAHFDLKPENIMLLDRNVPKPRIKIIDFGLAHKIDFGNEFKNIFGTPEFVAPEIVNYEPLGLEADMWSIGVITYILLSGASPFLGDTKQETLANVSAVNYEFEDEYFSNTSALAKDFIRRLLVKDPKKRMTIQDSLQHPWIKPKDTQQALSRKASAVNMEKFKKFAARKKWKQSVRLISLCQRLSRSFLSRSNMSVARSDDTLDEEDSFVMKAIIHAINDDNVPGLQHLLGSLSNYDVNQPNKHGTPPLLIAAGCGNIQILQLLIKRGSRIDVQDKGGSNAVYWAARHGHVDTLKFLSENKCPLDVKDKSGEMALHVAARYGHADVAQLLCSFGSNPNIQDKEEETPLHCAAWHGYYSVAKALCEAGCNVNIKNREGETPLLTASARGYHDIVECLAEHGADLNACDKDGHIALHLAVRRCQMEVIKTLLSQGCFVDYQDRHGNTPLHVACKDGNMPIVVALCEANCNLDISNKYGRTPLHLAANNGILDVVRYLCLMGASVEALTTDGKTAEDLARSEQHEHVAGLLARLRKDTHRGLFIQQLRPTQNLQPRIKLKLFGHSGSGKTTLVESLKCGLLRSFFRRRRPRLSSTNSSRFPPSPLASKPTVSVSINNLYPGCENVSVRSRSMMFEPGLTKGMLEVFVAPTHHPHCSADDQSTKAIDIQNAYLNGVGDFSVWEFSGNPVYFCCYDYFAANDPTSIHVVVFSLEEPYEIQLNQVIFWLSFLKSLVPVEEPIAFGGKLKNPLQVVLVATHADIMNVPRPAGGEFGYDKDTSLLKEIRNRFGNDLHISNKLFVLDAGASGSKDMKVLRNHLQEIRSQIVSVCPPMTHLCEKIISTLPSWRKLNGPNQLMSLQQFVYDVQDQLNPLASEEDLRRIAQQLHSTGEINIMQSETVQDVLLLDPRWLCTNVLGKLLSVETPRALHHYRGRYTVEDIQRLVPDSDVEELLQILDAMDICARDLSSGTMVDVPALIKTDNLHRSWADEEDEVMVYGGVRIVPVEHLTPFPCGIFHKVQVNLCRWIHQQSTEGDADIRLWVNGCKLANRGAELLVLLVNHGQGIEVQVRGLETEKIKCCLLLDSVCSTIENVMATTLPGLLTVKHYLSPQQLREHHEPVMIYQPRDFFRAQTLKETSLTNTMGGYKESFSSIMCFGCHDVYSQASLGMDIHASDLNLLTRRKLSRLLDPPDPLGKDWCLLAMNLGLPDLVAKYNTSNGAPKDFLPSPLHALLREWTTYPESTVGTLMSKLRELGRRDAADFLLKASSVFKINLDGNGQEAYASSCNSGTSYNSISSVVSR
T2 sequence (P11799 935-1906): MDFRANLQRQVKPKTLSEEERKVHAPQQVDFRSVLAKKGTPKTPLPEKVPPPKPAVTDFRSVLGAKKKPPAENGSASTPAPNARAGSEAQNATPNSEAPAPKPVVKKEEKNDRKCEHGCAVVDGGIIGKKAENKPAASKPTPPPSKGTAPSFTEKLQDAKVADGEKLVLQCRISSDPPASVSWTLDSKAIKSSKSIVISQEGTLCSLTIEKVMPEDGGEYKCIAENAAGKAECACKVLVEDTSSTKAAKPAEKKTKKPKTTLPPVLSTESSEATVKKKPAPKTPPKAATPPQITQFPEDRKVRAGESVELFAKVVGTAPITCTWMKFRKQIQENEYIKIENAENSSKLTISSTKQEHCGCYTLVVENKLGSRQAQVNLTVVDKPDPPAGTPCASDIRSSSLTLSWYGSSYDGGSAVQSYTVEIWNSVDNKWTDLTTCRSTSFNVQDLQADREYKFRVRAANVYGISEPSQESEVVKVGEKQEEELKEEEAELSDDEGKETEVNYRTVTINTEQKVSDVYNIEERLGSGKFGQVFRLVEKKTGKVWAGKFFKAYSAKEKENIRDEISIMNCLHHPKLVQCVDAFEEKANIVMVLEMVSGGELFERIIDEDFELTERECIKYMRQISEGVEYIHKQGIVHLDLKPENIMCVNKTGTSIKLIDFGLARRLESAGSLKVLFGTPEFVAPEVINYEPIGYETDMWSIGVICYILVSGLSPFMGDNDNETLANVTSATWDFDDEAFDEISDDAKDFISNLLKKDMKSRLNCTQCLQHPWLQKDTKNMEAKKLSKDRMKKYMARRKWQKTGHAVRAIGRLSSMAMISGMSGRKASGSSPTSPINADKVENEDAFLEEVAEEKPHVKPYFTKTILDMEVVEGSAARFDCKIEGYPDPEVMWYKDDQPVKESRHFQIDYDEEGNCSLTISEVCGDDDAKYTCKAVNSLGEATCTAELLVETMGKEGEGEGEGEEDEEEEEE
T1 sequence (P11275 1-325 limits assumed): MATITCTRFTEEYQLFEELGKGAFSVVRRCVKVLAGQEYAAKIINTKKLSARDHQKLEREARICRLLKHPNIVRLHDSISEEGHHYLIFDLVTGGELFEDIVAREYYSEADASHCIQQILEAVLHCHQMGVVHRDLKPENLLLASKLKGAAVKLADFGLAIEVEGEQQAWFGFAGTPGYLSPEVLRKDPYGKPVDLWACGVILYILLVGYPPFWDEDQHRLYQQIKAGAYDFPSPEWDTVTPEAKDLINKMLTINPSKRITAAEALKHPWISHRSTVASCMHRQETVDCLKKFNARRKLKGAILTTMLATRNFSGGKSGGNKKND

| Compound | LPS-induced lung injury (histology) (WT mice) | IC50 (CaMKII) [µM] | IC50 [1] [µM] | IC50 (protein kinase C (PKC)) [µM] | IC50 ([2]; Table 6, read-out: Inhibition DAPK) [µM] | DAPK inhibitory activity ([2]; comparison among compounds) | percent weight loss in the ischemic hemisphere compared to the contralateral hemisphere (Wistar rats at P7; 5 mg/kg IP 1 hour after carotid ligation, 7 day recovery to P14, mean±SEM, n=7) [%] | mortality (Wistar rats at P7; 5 mg/kg IP, versus vehicle group) |
| --- | --- | --- | --- | --- | --- | --- | --- | --- |
| N=c1ccc(Cl)nn1CCCCCCCCCCC(=O)Nc1ccc(-c2ccccc2)nn1 [MW01-022AZ] | no evidence of lung injury; also recorded: close to normal | – | – | – | – | – | – | – |
| N=c1cc2c(nn1CCCCCCCCCCC(=O)Nc1ccc(-c3ccccc3)nn1)-c1ccccc1CC2 [MW01-026Z] | – | > 100 | 20 to 50 | > 100 | < 20 | most potent DAPK inhibitor | 8.2±5.5 | no differences in mortality |
